Assay results taken from article PMC4076210, “Discovery of Novel AKT Inhibitors with Enhanced Anti-Tumor Effects in Combination with the MEK Inhibitor” (PLoS ONE, 2014).
Where two headings read alike, the source gives them in different places.

Legend:
Assay in all cases: Kinase panel
Type in all cases: biochemical
CaMKI(h) = target: T1, CaMKI(h) (Homo sapiens, UniProt Q14012)
T1 construct: purchased Millipore KinaseProfiler

CaMKIV(h) = target: T2, CaMKIV(h) (Homo sapiens, UniProt Q16566)
T2 construct: purchased Millipore KinaseProfiler
T2 sequence (Q16566 1-473): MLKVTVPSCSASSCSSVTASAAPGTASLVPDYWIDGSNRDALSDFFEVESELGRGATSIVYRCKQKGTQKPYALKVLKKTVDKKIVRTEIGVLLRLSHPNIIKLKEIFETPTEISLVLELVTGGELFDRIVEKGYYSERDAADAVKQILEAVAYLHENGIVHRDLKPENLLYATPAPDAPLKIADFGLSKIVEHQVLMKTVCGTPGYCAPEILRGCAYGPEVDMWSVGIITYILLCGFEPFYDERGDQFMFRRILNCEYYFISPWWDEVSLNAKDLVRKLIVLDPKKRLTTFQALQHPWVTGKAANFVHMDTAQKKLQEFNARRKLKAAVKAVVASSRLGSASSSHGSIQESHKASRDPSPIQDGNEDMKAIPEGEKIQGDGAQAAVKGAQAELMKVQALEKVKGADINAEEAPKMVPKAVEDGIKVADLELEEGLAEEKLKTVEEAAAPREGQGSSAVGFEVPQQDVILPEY

CDK7/cyclinH/MAT1(h) = target: T3, CDK7/cyclinH/MAT1(h) (Homo sapiens, UniProt P50613)
T3 construct: purchased Millipore KinaseProfiler

CHK1(h) = target: T4, CHK1(h) (Homo sapiens, UniProt O14757)
T4 construct: purchased Millipore KinaseProfiler
T4 sequence (O14757 1-476): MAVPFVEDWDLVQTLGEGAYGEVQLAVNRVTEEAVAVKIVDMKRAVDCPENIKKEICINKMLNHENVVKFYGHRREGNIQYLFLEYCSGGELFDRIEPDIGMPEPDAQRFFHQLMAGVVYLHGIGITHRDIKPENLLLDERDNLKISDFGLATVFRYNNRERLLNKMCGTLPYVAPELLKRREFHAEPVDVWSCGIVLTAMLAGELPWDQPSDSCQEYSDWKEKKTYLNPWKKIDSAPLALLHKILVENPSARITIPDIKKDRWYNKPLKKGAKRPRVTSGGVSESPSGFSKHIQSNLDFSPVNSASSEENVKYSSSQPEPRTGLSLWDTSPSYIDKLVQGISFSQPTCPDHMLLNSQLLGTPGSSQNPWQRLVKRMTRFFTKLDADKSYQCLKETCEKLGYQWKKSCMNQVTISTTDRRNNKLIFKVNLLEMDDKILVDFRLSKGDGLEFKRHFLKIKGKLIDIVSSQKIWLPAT

CK2α2(h) = target: T5, CK2α2(h) (Homo sapiens, UniProt P19784)
T5 construct: purchased Millipore KinaseProfiler

FGFR4(h) = target: T6, FGFR4(h) (Homo sapiens, UniProt P22455)
T6 construct: purchased Millipore KinaseProfiler

HIPK2(h) = target: T7, HIPK2(h) (Homo sapiens, UniProt Q9H2X6)
T7 construct: purchased Millipore KinaseProfiler

IRR(h) = target: T8, IRR(h) (Homo sapiens, UniProt P14616)
T8 construct: purchased Millipore KinaseProfiler

MAPK1(h) = target: T9, MAPK1(h) (Homo sapiens, UniProt P27361)
T9 construct: purchased Millipore KinaseProfiler

MAPKAP-K3(h) = target: T10, MAPKAP-K3(h) (Homo sapiens, UniProt Q16644)
T10 construct: purchased Millipore KinaseProfiler

Met(h) = target: T11, Met(h) (Homo sapiens, UniProt P08581)
T11 construct: purchased Millipore KinaseProfiler

PKCδ(h) = target: T12, PKCδ(h) (Homo sapiens, UniProt Q05655)
T12 construct: purchased Millipore KinaseProfiler

PRAK(h) = target: T13, PRAK(h) (Homo sapiens, UniProt Q8IW41)
T13 construct: purchased Millipore KinaseProfiler
T13 sequence (Q8IW41 1-473): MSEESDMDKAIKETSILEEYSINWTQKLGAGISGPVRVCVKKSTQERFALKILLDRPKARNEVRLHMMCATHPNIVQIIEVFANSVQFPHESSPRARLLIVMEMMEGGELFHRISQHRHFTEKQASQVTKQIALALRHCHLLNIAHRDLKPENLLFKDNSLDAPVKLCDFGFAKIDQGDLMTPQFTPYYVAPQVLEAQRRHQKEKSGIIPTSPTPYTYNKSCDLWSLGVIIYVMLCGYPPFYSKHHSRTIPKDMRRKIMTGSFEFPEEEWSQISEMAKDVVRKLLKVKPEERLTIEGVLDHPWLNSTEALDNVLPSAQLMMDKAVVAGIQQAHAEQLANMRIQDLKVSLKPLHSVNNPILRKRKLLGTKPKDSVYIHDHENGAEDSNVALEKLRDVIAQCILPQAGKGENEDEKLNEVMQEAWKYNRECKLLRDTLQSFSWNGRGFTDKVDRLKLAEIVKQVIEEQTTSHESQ

ROCK-II(r) = target: T14, ROCK-II(r) (Rattus norvegicus, UniProt Q62868)
T14 construct: purchased Millipore KinaseProfiler

Src(1-530)(h) = target: T15, Src(1-530)(h) (Homo sapiens, UniProt P12931)
T15 construct: purchased Millipore KinaseProfiler

Tie2(R849W)(h) = target: T16, Tie2(R849W)(h) (Homo sapiens, UniProt Q02763, R849W)
T16 construct: purchased Millipore KinaseProfiler

T6 sequence (P22455 22-802): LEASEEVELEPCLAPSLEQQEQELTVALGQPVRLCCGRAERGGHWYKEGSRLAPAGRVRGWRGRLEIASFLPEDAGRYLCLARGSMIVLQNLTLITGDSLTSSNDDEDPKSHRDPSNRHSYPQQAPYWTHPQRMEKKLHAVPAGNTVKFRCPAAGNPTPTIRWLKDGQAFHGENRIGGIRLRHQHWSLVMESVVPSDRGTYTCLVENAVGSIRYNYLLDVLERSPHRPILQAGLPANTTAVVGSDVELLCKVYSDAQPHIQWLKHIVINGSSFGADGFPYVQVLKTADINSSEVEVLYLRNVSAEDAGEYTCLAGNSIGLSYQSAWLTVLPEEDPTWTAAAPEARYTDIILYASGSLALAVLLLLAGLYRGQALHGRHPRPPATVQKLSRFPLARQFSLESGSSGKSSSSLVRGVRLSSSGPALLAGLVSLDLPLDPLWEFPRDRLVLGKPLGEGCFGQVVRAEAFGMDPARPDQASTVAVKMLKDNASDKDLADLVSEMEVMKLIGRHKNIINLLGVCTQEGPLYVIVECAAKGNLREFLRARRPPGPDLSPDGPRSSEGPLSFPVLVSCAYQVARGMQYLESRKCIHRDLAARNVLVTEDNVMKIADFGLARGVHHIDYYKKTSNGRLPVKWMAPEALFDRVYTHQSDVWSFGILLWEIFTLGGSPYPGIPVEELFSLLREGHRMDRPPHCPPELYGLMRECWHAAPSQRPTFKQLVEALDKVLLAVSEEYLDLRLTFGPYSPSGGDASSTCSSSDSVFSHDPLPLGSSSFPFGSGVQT
T10 sequence (Q16644 whole entry): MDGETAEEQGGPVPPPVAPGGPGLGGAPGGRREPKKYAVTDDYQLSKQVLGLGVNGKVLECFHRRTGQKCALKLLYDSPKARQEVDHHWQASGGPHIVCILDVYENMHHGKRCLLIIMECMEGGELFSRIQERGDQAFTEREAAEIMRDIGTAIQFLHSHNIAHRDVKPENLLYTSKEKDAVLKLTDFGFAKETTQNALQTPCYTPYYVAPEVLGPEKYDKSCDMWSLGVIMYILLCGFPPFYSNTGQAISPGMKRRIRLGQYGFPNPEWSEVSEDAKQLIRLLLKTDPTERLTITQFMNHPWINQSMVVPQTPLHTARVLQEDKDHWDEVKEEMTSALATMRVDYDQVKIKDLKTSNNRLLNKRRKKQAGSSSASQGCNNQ
T8 sequence (P14616 27-1297): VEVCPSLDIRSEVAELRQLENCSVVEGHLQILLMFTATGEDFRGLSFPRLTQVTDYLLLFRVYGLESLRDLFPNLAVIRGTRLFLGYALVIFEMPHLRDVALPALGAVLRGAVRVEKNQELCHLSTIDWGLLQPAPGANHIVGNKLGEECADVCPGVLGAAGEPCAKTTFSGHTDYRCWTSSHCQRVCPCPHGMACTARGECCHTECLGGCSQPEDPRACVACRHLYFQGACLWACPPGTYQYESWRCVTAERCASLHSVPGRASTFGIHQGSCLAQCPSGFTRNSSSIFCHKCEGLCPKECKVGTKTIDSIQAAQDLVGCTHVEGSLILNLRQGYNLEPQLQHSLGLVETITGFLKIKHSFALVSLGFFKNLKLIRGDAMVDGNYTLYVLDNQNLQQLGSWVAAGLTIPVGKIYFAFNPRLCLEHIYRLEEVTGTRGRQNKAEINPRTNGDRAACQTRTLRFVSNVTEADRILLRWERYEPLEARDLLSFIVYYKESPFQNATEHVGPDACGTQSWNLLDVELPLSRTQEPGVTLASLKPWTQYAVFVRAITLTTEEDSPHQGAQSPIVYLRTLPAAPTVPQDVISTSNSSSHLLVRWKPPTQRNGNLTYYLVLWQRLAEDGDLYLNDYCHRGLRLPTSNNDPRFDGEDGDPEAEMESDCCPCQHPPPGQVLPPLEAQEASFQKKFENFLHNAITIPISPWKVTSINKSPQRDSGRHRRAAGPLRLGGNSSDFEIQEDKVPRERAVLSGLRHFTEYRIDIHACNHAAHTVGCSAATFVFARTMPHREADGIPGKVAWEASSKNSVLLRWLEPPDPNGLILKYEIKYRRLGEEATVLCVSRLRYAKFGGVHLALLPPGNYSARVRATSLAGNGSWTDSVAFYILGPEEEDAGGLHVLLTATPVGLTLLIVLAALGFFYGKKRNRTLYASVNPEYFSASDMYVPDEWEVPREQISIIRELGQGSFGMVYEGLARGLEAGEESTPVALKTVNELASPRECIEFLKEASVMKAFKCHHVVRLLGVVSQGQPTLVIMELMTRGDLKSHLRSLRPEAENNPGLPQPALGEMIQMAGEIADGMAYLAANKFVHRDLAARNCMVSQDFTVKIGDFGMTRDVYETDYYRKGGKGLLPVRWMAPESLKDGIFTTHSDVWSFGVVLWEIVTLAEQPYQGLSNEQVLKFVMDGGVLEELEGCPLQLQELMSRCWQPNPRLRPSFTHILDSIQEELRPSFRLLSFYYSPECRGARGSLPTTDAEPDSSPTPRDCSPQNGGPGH
T11 sequence (P08581 25-1390): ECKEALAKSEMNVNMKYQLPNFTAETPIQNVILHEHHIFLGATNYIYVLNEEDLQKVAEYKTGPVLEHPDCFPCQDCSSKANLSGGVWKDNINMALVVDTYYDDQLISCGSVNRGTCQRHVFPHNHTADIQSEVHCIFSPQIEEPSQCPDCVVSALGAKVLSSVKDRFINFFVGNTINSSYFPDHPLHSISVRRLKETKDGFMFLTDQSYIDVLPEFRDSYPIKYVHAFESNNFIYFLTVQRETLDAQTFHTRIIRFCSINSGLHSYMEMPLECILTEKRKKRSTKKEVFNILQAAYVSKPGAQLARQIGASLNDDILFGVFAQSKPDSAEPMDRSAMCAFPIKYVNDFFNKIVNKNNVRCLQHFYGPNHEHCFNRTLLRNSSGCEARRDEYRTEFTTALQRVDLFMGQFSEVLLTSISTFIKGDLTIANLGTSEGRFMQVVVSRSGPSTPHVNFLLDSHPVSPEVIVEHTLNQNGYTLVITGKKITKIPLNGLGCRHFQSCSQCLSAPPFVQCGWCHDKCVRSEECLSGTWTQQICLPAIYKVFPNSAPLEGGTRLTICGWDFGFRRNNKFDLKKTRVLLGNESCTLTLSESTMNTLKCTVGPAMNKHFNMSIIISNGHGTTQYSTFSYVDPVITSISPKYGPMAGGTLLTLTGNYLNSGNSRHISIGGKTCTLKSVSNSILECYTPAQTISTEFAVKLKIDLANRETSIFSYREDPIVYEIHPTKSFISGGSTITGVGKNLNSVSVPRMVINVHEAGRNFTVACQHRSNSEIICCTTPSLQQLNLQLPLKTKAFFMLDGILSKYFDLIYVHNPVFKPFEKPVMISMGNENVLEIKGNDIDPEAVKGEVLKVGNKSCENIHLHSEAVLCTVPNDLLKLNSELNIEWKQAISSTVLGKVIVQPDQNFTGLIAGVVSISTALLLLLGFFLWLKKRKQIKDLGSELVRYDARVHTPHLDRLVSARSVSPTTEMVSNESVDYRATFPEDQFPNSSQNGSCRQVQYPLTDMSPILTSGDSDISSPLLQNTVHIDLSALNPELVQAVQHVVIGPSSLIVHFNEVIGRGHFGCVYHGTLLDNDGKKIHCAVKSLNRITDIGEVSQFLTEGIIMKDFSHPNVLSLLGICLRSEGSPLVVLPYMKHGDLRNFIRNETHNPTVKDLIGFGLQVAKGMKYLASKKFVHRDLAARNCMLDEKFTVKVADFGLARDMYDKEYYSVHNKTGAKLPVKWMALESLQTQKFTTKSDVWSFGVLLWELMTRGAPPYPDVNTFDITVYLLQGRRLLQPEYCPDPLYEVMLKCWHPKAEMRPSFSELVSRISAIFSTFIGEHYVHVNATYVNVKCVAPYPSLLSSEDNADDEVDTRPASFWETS
T7 sequence (Q9H2X6 whole entry): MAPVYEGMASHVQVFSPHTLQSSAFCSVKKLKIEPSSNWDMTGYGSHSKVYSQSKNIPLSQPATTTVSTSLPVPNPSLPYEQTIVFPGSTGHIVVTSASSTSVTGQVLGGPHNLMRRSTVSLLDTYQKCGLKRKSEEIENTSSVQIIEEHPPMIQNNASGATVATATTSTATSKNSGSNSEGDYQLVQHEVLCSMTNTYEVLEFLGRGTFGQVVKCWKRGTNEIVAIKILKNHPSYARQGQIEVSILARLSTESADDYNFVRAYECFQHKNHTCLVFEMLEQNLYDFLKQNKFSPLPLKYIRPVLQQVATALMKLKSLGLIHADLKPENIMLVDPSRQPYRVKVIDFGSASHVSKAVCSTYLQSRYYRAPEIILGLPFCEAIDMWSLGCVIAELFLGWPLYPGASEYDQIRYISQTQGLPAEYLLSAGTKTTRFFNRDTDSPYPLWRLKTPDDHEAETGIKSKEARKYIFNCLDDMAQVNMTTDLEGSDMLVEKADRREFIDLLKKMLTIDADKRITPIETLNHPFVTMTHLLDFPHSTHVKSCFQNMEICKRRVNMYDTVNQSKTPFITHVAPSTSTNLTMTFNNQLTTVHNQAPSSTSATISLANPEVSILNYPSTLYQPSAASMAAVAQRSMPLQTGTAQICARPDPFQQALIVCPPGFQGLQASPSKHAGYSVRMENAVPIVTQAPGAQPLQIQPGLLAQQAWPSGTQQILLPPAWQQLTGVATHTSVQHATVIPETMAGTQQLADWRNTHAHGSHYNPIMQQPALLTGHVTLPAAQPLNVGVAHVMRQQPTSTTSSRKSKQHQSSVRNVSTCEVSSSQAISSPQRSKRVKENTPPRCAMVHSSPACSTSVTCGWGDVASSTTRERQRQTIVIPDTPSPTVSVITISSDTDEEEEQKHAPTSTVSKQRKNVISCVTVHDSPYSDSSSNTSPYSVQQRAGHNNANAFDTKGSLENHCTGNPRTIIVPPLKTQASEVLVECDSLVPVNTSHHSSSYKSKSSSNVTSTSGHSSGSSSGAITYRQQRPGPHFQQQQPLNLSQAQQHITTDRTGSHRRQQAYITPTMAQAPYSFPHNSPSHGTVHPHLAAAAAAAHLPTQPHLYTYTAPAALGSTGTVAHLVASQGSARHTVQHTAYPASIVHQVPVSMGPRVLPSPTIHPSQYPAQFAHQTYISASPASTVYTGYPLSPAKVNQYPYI

Question: What does the source list for `Cn1ncc(Cl)c1-c1cc(C(=O)N[C@H](CN)Cc2ccc(F)c(F)c2)oc1Cl` [GSK2141795]?
Answer: inhibition at 0.5 µM (CaMKI(h); 0.5 µM, read-out: % Inhibition): -30%; inhibition at 10 µM (CaMKI(h); 10 µM, read-out: % Inhibition): 16%; inhibition at 0.5 µM (CaMKIV(h); 0.5 µM, read-out: % Inhibition): -18%; inhibition at 10 µM (CaMKIV(h); 10 µM, read-out: % Inhibition): -21%; inhibition at 0.5 µM (CDK7/cyclinH/MAT1(h); 0.5 µM, read-out: % Inhibition): 64%; inhibition at 10 µM (CDK7/cyclinH/MAT1(h); 10 µM, read-out: % Inhibition): 101%; inhibition at 0.5 µM (CHK1(h); 0.5 µM, read-out: % Inhibition): -9%; inhibition at 10 µM (CHK1(h); 10 µM, read-out: % Inhibition): 21%; inhibition at 0.5 µM (CK2α2(h); 0.5 µM, read-out: % Inhibition): 1%; inhibition at 10 µM (CK2α2(h); 10 µM, read-out: % Inhibition): -5%; inhibition at 0.5 µM (FGFR4(h); 0.5 µM, read-out: % Inhibition): 24%; inhibition at 10 µM (FGFR4(h); 10 µM, read-out: % Inhibition): 19%; inhibition at 0.5 µM (HIPK2(h); 0.5 µM, read-out: % Inhibition): 26%; inhibition at 10 µM (HIPK2(h); 10 µM, read-out: % Inhibition): 83%; inhibition at 0.5 µM (IRR(h); 0.5 µM, read-out: % Inhibition): -16%; inhibition at 10 µM (IRR(h); 10 µM, read-out: % Inhibition): -11%; inhibition at 0.5 µM (MAPK1(h); 0.5 µM, read-out: % Inhibition): 4%; inhibition at 10 µM (MAPK1(h); 10 µM, read-out: % Inhibition): 58%; inhibition at 0.5 µM (MAPKAP-K3(h); 0.5 µM, read-out: % Inhibition): -8%; inhibition at 10 µM (MAPKAP-K3(h); 10 µM, read-out: % Inhibition): -2%; inhibition at 0.5 µM (Met(h); 0.5 µM, read-out: % Inhibition): -28%; inhibition at 10 µM (Met(h); 10 µM, read-out: % Inhibition): -6%; inhibition at 0.5 µM (PKCδ(h); 0.5 µM, read-out: % Inhibition): 67%; inhibition at 10 µM (PKCδ(h); 10 µM, read-out: % Inhibition): 85%; inhibition at 0.5 µM (PRAK(h); 0.5 µM, read-out: % Inhibition): 2%; inhibition at 10 µM (PRAK(h); 10 µM, read-out: % Inhibition): -17%; inhibition at 0.5 µM (ROCK-II(r); 0.5 µM, read-out: % Inhibition): 72%; inhibition at 10 µM (ROCK-II(r); 10 µM, read-out: % Inhibition): 98%; inhibition at 0.5 µM (Src(1-530)(h); 0.5 µM, read-out: % Inhibition): -30%; inhibition at 10 µM (Src(1-530)(h); 10 µM, read-out: % Inhibition): 30%; inhibition at 0.5 µM (Tie2(R849W)(h); 0.5 µM, read-out: % Inhibition): -8%; inhibition at 10 µM (Tie2(R849W)(h); 10 µM, read-out: % Inhibition): 11%

Question: `Cn1ncc(Cl)c1-c1cc(C(=O)N[C@H](CN)Cc2cccc(F)c2)sc1Cl` [GSK2110183] was tested. Which inhibition at 0.5 µM (CaMKI(h)) did it give?
Answer: Its inhibition at 0.5 µM is 3%.

Question: And the inhibition at 10 µM (CaMKI(h))?
Answer: The inhibition at 10 µM was 24%.

Question: What about the inhibition at 0.5 µM (CaMKIV(h)) of the same compound?
Answer: Its inhibition at 0.5 µM is -15%.

Question: And the inhibition at 10 µM (CaMKIV(h))?
Answer: Its inhibition at 10 µM is 0%.

Question: What about the inhibition at 0.5 µM (CDK7/cyclinH/MAT1(h)) of the same compound?
Answer: The inhibition at 0.5 µM was 62%.

Question: What about the inhibition at 10 µM (CDK7/cyclinH/MAT1(h)) of the same compound?
Answer: Its inhibition at 10 µM is 96%.

Question: And the inhibition at 0.5 µM (CHK1(h))?
Answer: The inhibition at 0.5 µM was 13%.

Question: And the inhibition at 10 µM (CHK1(h))?
Answer: The inhibition at 10 µM was 34%.

Question: What about the inhibition at 0.5 µM (CK2α2(h)) of the same compound?
Answer: The inhibition at 0.5 µM was 2%.

Question: And the inhibition at 10 µM (CK2α2(h))?
Answer: Its inhibition at 10 µM is 4%.

Question: And the inhibition at 0.5 µM (FGFR4(h))?
Answer: Its inhibition at 0.5 µM is 0%.

Question: What about the inhibition at 10 µM (FGFR4(h)) of the same compound?
Answer: Its inhibition at 10 µM is 19%.

Question: And the inhibition at 0.5 µM (HIPK2(h))?
Answer: Its inhibition at 0.5 µM is 25%.

Question: What about the inhibition at 10 µM (HIPK2(h)) of the same compound?
Answer: The inhibition at 10 µM was 87%.

Question: And the inhibition at 0.5 µM (IRR(h))?
Answer: Its inhibition at 0.5 µM is -11%.

Question: And the inhibition at 10 µM (IRR(h))?
Answer: The inhibition at 10 µM was -8%.

Question: What about the inhibition at 0.5 µM (MAPK1(h)) of the same compound?
Answer: Its inhibition at 0.5 µM is -26%.

Question: What about the inhibition at 10 µM (MAPK1(h)) of the same compound?
Answer: The inhibition at 10 µM was 10%.

Question: What about the inhibition at 0.5 µM (MAPKAP-K3(h)) of the same compound?
Answer: Its inhibition at 0.5 µM is 4%.

Question: What about the inhibition at 10 µM (MAPKAP-K3(h)) of the same compound?
Answer: Its inhibition at 10 µM is 10%.

Question: What about the inhibition at 0.5 µM (Met(h)) of the same compound?
Answer: The inhibition at 0.5 µM was -7%.

Question: What about the inhibition at 10 µM (Met(h)) of the same compound?
Answer: Its inhibition at 10 µM is 11%.

Question: What about the inhibition at 0.5 µM (PKCδ(h)) of the same compound?
Answer: The inhibition at 0.5 µM was 48%.

Question: And the inhibition at 10 µM (PKCδ(h))?
Answer: The inhibition at 10 µM was 92%.

Question: What about the inhibition at 0.5 µM (PRAK(h)) of the same compound?
Answer: The inhibition at 0.5 µM was -35%.

Question: And the inhibition at 10 µM (PRAK(h))?
Answer: Its inhibition at 10 µM is -57%.

Question: What about the inhibition at 0.5 µM (ROCK-II(r)) of the same compound?
Answer: Its inhibition at 0.5 µM is 73%.

Question: What about the inhibition at 10 µM (ROCK-II(r)) of the same compound?
Answer: The inhibition at 10 µM was 97%.

Question: What about the inhibition at 0.5 µM (Src(1-530)(h)) of the same compound?
Answer: Its inhibition at 0.5 µM is -12%.

Question: And the inhibition at 10 µM (Src(1-530)(h))?
Answer: The inhibition at 10 µM was 61%.

Question: And the inhibition at 0.5 µM (Tie2(R849W)(h))?
Answer: The inhibition at 0.5 µM was -8%.

Question: What about the inhibition at 10 µM (Tie2(R849W)(h)) of the same compound?
Answer: The inhibition at 10 µM was -9%.
